# How the values were obtained:
# Caco-2 cells [1] = experiment: ATP assay (CellTiter-Glo) cytotoxicity; format: cell-based
# Procedure: (§1) Caco-2 cells were purchased from American Type Culture Collection (ATCC, USA) and maintained in Dulbecco's Modified Eagles Medium (DMEM) supplemented with 15% filtered sterile foetal bovine serum. Cells were incubated at 37° C. and 5% CO2 and were routinely sub-cultured every 4 days when 90% confluent. Cell count and viability was determined using a Countess automated cell counter (Invitrogen).
# (§2) Caco-2 cells were seeded at a density of 1.0×10^4 cells/100 μl in DMEM supplemented with 15% FBS into each well of a 96 well plate (Nunclon, Denmark) and incubated at 37° C. and 5% CO2. Cells from 4 separate flasks of biological replicates of each cell type were used (N1-4) to improve statistical power. Media was then aspirated from column 1 and replaced with media containing each polydendron or aqueous Nile Red solution at an equivalent 1 μM Nile Red concentration then diluted 1:1 in media across the plate up to column 11. Column 12 served as a negative control and consisted of media and untreated cells. Following polydendron addition, the plates were incubated for 24 hours or 120 hours at 37° C., 5% CO2 prior to assessment of cytotoxicity.
# Following incubation of treated plates for 24 h or 120 h, cells were equilibrated to room temperature for approximately 30 minutes. All but 20 μl of media was removed from each well and 20 μl CellTiter-Glo® (Promega, UK) reagent was added. All reagents were made fresh and in accordance with the manufacturer's instructions. Plates were put on an orbital shaker for 10 minutes to mix contents and allow for stabilisation of luminescence signal. Luminescence was then measured using a Tecan Genios plate reader (Tecan Magellan, Austria).
# Caco-2 cells [2] = experiment: MTT assay cytotoxicity; format: cell-based
# Procedure: as §1, §2
# Following incubation of treated plates for 24 h or 120 h, 20 μl of 5 mg ml^−1 MTT reagent was added to each well and incubated for 2 hours. Subsequently, 100 μL MTT lysis buffer (50% N—N-Dimethylformamide in water containing 20% SDS, 2.5% glacial acetic acid and 2.5% hydrochloric acid, pH 4.7) was added to each well to lyse overnight at 37° C., 5% CO2. Following incubation the absorbance of each well was read using a Tecan Genosis plate reader at 560 nm (Tecan Magellan, Austria).
# Caco-2 cell monolayers = experiment: Transcellular permeability of Nile Red across Caco-2 monolayers; format: in vitro ADME; conditions: 1 hour incubation
# Procedure: Transwells were seeded with 3.5×10^4 cells per well and propagated to a monolayer over a 21 day period, during which media in the apical and basolateral wells was changed every other day. Trans-epithelial electrical resistance (TEER) values were monitored until they were >1300Ω. 1 μM of Nile Red polydendron or 1 μM aqueous Nile Red was added to the apical chamber of 4 wells and the basolateral chamber of 4 wells to quantify transport in both Apical to Basolateral (A>B) and Basolateral to Apical (B>A) direction and sampled on an hourly basis over a 4 h time period. Apparent permeability coefficient was then determined by the amount of compound transported over time using the equation: […]
# where (dQ/dt) is the amount per time (nmol·sec^−1), A is the surface area of the filter and C0 is the starting concentration of the donor chamber (1 μM).
# 100 μl of each collected sample was mixed with 900 μl acetone, vortexed, sonicated for 6 minutes and centrifuged at 13300 rpm for 3 minutes. The supernatant was completely dried in a vacuum centrifuge at 30° C. until the dry solid sample was left. This was reconstituted in 150 μl acetonitrile, transferred to a 96-well black walled, flat bottomed plate and measured for fluorescence intensity excitation wavelength 480 nm, emission wavelength 560 nm using a Tecan Genios plate reader (Tecan Magellan, Austria).
structure (smiles),measurement,setting,value
"CCN(CC)c1ccc2nc3c4ccccc4c(=O)cc-3oc2c1 [aqueous Nile Red, Nile red]",effect on ATP presence in Caco-2 cells,"Caco-2 cells [1]; 24 hour incubation, compared to untreated cells",ATP presence was not affected
same,effect on viability of Caco-2 cells (ATP assay),"Caco-2 cells [1]; 120 hour incubation, compared to untreated cells",viability was not affected
same,"EC50, ATP assay","Caco-2 cells [1]; Caco-2 cells, 120 hour incubation, FIG. 9",No EC50
same,effect on metabolic turnover of Caco-2 cells (MTT),"Caco-2 cells [2]; 24 hour incubation, compared to untreated cells, range of concentrations investigated",did not affect metabolic turnover
same,effect on viability of Caco-2 cells (MTT),"Caco-2 cells [2]; 120 hour incubation, range of concentrations investigated",did not affect the viability
same,"EC50, MTT assay","Caco-2 cells [2]; Caco-2 cells, 120 hour incubation, FIG. 7",No EC50
same,A > B/B > A ratio,Caco-2 cell monolayers,3.7140

# Source: patent publication US20160159954A1, “POLYDENDRONS” (The Univeristy of Liverpool, priority 2013, published 2016)
